Our source for the IC50 and melting point values is patent US20100137275A1 (IPSEN PHARMA S.A.S., priority 2007, published 2010).

The test system of data set [1] is Mia-PaCa2 (human pancreas cancer cells). Put plainly: Anti-proliferative activity on Mia-Paca2 cell line (WST1 colorimetric test). In kind it is cell-based. Conditions: MIA PaCa-2, 96 h, 96 hours treatment, read-out: IC50 on proliferation of the Mia-Paca2 cell line. Here is the method:
(§1) By way of an example, the effect of treating two human cell lines Mia-Paca2 and DU145 with the compounds of the examples described hereinbefore will be studied. The cell lines DU145 (human prostate cancer cells) and Mia-PaCa2 (human pancreas cancer cells) were obtained from the American Tissue Culture Collection (Rockville, Md., USA). A 96-well plate was inoculated on day 0 with cells placed in 80 μl of Dulbecco's modified Eagle's medium (Gibco-Brl, Cergy-Pontoise, France) with 10% heat-inactivated foetal calf serum (Gibco-Brl, Cergy-Pontoise, France), 50000 units/1 of penicillin and 50 mg/l of streptomycin (Gibco-Brl, Cergy-Pontoise, France), and 2 mM of glutamine (Gibco-Brl, Cergy-Pontoise, France). The cells were treated on day 1 with increasing concentrations of each test compound up to 10 μM for 96 hours. At the end of this period, cell proliferation is quantified by means of a colorimetric test based on cleavage of the tetrazolium salt WST1 by the mitochondrial dehydrogenases in the viable cells, resulting in formation of formazan (Boehringer Mannheim, Meylan, France). These tests are performed in duplicate with 8 determinations per concentration tested. For each compound to be tested, the values within the linear part of the sigmoid curve were subjected to linear regression analysis and used to estimate the IC50 inhibitory concentration. The products are solubilised in dimethylsulfoxide (DMSO) at a concentration of 10^−2 M and used in culture with a final DMSO concentration of 0.1%.
On the technique in general: Tetrazolium dyes change colour on reduction, which living cells bring about.

Data set [2] addresses T1, purified recombinant Cdc25-C enzyme (MBP-Cdc25C protein) (Homo sapiens, UniProt P30307).
T1 construct: made in house
T1 sequence (P30307 1-473): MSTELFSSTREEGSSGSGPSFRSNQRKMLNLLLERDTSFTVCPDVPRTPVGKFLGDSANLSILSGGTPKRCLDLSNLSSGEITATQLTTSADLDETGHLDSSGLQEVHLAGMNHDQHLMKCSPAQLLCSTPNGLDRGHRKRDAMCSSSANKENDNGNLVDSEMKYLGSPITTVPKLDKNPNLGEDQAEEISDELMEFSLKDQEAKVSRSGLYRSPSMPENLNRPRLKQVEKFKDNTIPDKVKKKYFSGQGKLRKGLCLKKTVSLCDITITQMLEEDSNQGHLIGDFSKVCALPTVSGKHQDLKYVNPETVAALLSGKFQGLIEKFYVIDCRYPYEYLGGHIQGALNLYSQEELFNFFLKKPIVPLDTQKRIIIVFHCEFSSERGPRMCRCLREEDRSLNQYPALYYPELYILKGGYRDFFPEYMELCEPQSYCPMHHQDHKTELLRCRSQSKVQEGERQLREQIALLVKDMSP
Put plainly: Phosphatase activity of the purified recombinant Cdc25C enzyme (OMFP dephosphorylation, fluorescence). It counts as biochemical. Particulars: OMFP 500 μM, 4 hours at 30° C. In short, it runs like this:
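MBP-Cdc25C fusion protein in 50 mM Tris-HCl pH 8.2, 50 mM NaCl, 1 mM DTT, 20% glycerol; reaction started with 500 μM OMFP (final). Compounds tested at decreasing concentrations from 40 μM; 4 h at 30 °C, OMF fluorescence read at 475 nm. IC50 from three independent experiments by linear regression over the linear part of the sigmoid.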

The subject of data set [3] is DU145 (human prostate cancer cells). The data set is described as follows: Anti-proliferative activity on DU-145 cell line (WST1 colorimetric test). In kind it is cell-based. Particulars: DU-145, 96 h, 96 hours treatment, read-out: IC50 on the proliferation of the DU-145 cell line. Here is the method: as §1

Bounds are passed on as bounds.

As for `CN(CCNc1cc(N2CCCC2)nc(N2CCCC2)n1)CCNS(=O)(=O)c1cccc(C(F)(F)F)c1` [Example 88, N-{2-[{2-[(2,6-dipyrrolidin-1-ylpyrimidin-4-yl)amino]ethyl}(methyl)amino]ethyl}-3-(trifluoromethyl)benzenesulfonamide], the melting point (usually the temperature, or range, at which the solid turns liquid) was 203 to 205 °C. Besides, the IC50 in data set [1] was not above 5 µM. Further, in data set [2], the IC50 is not above 5 µM. In data set [3], the IC50 is not above 5 µM.
`CN(CCNC(=O)C1CCN(c2nccc(C(F)(F)F)n2)CC1)CCNc1cc(N2CCCC2)nc(N2CCCC2)n1` [Example 86, N-{2-[{2-[(2,6-dipyrrolidin-1-ylpyrimidin-4-yl)amino]ethyl}(methyl)amino]ethyl}-1-[4-(trifluoromethyl)pyrimidin-2-yl]piperidine-4-carboxamide] registered a melting point of 171 to 173 °C. The IC50 in data set [1] was not above 5 µM. Besides, the IC50 in data set [2] is not above 5 µM.
As for `CN(CCNC(=S)Nc1ccc(S(=O)(=O)c2ccc(Br)cc2)cc1)CCNc1cc(N2CCCC2)nc(N2CCCC2)n1` [Example 60, N-{4-[(4-bromophenyl)sulfonyl]phenyl}-N′-{2-[{2-[(2,6-dipyrrolidin-1-ylpyrimidin-4-yl)amino]ethyl}(methyl)amino]ethyl}thiourea], the melting point lay within 118 to 120 °C. For the same compound, in data set [1], the IC50 was not above 5 µM. Besides, the IC50 in data set [2] was not above 1 µM. Further, in data set [3], the IC50 is not above 5 µM.
For `CN(CCNC(=S)Nc1ccc(S(=O)(=O)Nc2ccccc2)cc1)CCNc1cc(N2CCCC2)nc(N2CCCC2)n1` [Example 62, 4-{[({2-[{2-[(2,6-dipyrrolidin-1-ylpyrimidin-4-yl)amino]ethyl}(methyl)amino]ethyl}amino)carbonothioyl]amino}-N-phenylbenzenesulfonamide], the melting point was in the range of 146 to 148 °C. For the same compound, in data set [1], the IC50 was not above 5 µM. Moreover, in data set [2], the IC50 was not above 1 µM. In addition, in data set [3], the IC50 is not above 5 µM.
In the case of `CN(CCNC(=S)NCc1ccc(F)cc1)CCNc1cc(N2CCCC2)nc(N2CCCC2)n1` [Example 46, N-{2-[{2-[(2,6-dipyrrolidin-1-ylpyrimidin-4-yl)amino]ethyl}(methyl)amino]ethyl}-N′-(4-fluorobenzyl)thiourea], the melting point fell in the range of 64 to 66 °C. The IC50 in data set [1] was not above 5 µM. For the same compound, the IC50 in data set [2] is not above 1 µM. Besides, the IC50 in data set [3] is not above 5 µM.
`CN(CCNC(=O)Nc1ccc(Cl)cc1)CCNc1cc(N2CCCC2)nc(N2CCCC2)n1` [Example 16, N-(4-chlorophenyl)-N′-{2-[{2-[(2,6-dipyrrolidin-1-ylpyrimidin-4-yl)amino]ethyl}(methyl)amino]ethyl}urea]: the melting point is 71 to 73 °C. Moreover, the IC50 in data set [1] is not above 5 µM. The IC50 in data set [2] is not above 1 µM. The IC50 in data set [3] was not above 5 µM.
As to `CN(CCNC(=S)Nc1ccc(S(=O)(=O)N2CCCCC2)cc1)CCNc1cc(N2CCCC2)nc(N2CCCC2)n1` [Example 27, N-{2-[{2-[(2,6-dipyrrolidin-1-ylpyrimidin-4-yl)amino]ethyl}(methyl)amino]ethyl}-N′-[4-(piperidin-1-ylsulfonyl)phenyl]thiourea], the melting point was in the range of 120 to 122 °C. Besides, the IC50 in data set [1] was not above 5 µM. Further, the IC50 in data set [2] is not above 5 µM. Also, the IC50 in data set [3] was not above 5 µM.
Take `CN(CCNC(=S)Nc1cccnc1)CCNc1cc(N2CCCC2)nc(N2CCCC2)n1` [Example 26, N-{2-[{2-[(2,6-dipyrrolidin-1-ylpyrimidin-4-yl)amino]ethyl}(methyl)amino]ethyl}-N′-pyridin-3-ylthiourea]: the melting point is 107 to 109 °C. Moreover, the IC50 in data set [1] was not above 5 µM. Further, in data set [2], the IC50 is not above 1 µM.
Compound `CC(Oc1ccccc1)C(=O)NCCN(C)CCNc1cc(N2CCCC2)nc(N2CCCC2)n1` (stereo not shown) [Example 84, N-{2-[{2-[(2,6-dipyrrolidin-1-ylpyrimidin-4-yl)amino]ethyl}(methyl)amino]ethyl}-2-phenoxypropanamide] gave a melting point of 110 to 112 °C. For the same compound, in data set [1], the IC50 was not above 5 µM. Also, in data set [2], the IC50 was not above 5 µM.
Compound `CN(CCNC(=S)Nc1ccc(-n2cccn2)cc1)CCNc1cc(N2CCCC2)nc(N2CCCC2)n1` [Example 48, N-{2-[{2-[(2,6-dipyrrolidin-1-ylpyrimidin-4-yl)amino]ethyl}(methyl)amino]ethyl}-N′-[4-(1H-pyrazol-1-yl)phenyl]thiourea] had a melting point of 116 to 118 °C. Further, in data set [1], the IC50 was not above 5 µM. The IC50 in data set [2] is not above 5 µM. The IC50 in data set [3] is not above 5 µM.
In turn, `CN(CCNC(=O)c1cccc2c1-c1ccccc1C2=O)CCNc1cc(N2CCCC2)nc(N2CCCC2)n1` [Example 85, N-{2-[{2-[(2,6-dipyrrolidin-1-ylpyrimidin-4-yl)amino]ethyl}(methyl)amino]ethyl}-9-oxo-9H-fluorene-4-carboxamide] registered a melting point of 139 to 140 °C. The IC50 in data set [1] was not above 5 µM. In addition, in data set [2], the IC50 is not above 5 µM.
In turn, `O=C(NCCCCCNc1cc(N2CCCC2)nc(N2CCCC2)n1)Nc1ccc(Cl)cc1` [Example 19, N-(4-chlorophenyl)-N′-{5-[(2,6-dipyrrolidin-1-ylpyrimidin-4-yl)amino]pentyl}urea] had a melting point of 192 to 193 °C. Moreover, the IC50 in data set [1] was not above 5 µM. In data set [2], the IC50 was not above 1 µM. Further, the IC50 in data set [3] was not above 5 µM.
With `CN(CCNc1cc(N2CCCC2)nc(N2CCCC2)n1)CCNS(=O)(=O)c1ccc(C(F)(F)F)cc1` [Example 89, N-{2-[{2-[(2,6-dipyrrolidin-1-ylpyrimidin-4-yl)amino]ethyl}(methyl)amino]ethyl}-4-(trifluoromethyl)benzenesulfonamide], the melting point fell in the range of 140 to 142 °C. Also, the IC50 in data set [1] was not above 5 µM. For the same compound, the IC50 in data set [2] is not above 5 µM. Besides, in data set [3], the IC50 was not above 5 µM.
Take `CN(CCNC(=S)NCc1ccco1)CCNc1cc(N2CCCC2)nc(N2CCCC2)n1` [Example 29, N-{2-[{2-[(2,6-dipyrrolidin-1-ylpyrimidin-4-yl)amino]ethyl}(methyl)amino]ethyl}-N′-(2-furylmethyl)thiourea]: the IC50 in data set [1], in data set [2] and in data set [3] was not above 5 µM throughout.
Consider `CN(CCCNC(=O)Nc1ccc(Cl)c(C(F)(F)F)c1)CCCNc1cc(N2CCCC2)nc(N2CCCC2)n1` [Example 21, N-[4-chloro-3-(trifluoromethyl)phenyl]-N′-{3-[{3-[(2,6-dipyrrolidin-1-ylpyrimidin-4-yl)amino]propyl}(methyl)amino]propyl}urea], for which the IC50 in data set [1], in data set [2] and in data set [3] was not above 5 µM throughout.
For the compound `COc1cc(NC(=S)NCCN(C)CCNc2cc(N3CCCC3)nc(N3CCCC3)n2)cc(OC)c1OC` [Example 38, N-{2-[{2-[(2,6-dipyrrolidin-1-ylpyrimidin-4-yl)amino]ethyl}(methyl)amino]ethyl}-N′-(3,4,5-trimethoxyphenyl)thiourea], the melting point lay within 109 to 111 °C. Also, in data set [1], the IC50 is not above 5 µM. In addition, the IC50 in data set [2] was not above 1 µM. Besides, the IC50 in data set [3] was not above 5 µM.
For `CN(CCNC(=S)Nc1ccc(Cl)cc1)CCNc1cc(N2CCC2)nc(N2CCC2)n1` [Example 75, N-(4-chlorophenyl)-N′-{2-[{2-[(2,6-diazetidin-1-ylpyrimidin-4-yl)amino]ethyl}(methyl)amino]ethyl}thiourea], the melting point was in the range of 146 to 148 °C. Besides, in data set [1], the IC50 is not above 5 µM. The IC50 in data set [3] is not above 5 µM.
Turning to `CN(CCNC(=S)Nc1ccc(N(C)C)cc1)CCNc1cc(N2CCCC2)nc(N2CCCC2)n1` [Example 76, N-[4-(dimethylamino)phenyl]-N′-{2-[{2-[(2,6-dipyrrolidin-1-ylpyrimidin-4-yl)amino]ethyl}(methyl)amino]ethyl}thiourea], the melting point lay in the range of 127 to 129 °C. In addition, the IC50 in data set [1] is not above 5 µM. Besides, the IC50 in data set [3] is not above 5 µM.
